The values that follow come from ChEMBL document CHEMBL4421720, “Tetrahydropyridopyrazines modulators of gpr6” (2016).

This assay deals with G-protein coupled receptor 6 (Homo sapiens, UniProt P46095). Nature of the assay: Modulation activity at GPR6 receptor (unknown origin) expressed in CHO-K1 cells assessed as inhibition of constitutive cAMP activity incubated for 45 mins by Perkin Elmer Lance HTRF Ultrac-AMP assay. The format is functional, cell-based. On the technique in general: Time-resolved FRET reads energy transfer from a long-lived donor to a nearby acceptor.
G-protein coupled receptor 6, sequence (P46095 whole entry): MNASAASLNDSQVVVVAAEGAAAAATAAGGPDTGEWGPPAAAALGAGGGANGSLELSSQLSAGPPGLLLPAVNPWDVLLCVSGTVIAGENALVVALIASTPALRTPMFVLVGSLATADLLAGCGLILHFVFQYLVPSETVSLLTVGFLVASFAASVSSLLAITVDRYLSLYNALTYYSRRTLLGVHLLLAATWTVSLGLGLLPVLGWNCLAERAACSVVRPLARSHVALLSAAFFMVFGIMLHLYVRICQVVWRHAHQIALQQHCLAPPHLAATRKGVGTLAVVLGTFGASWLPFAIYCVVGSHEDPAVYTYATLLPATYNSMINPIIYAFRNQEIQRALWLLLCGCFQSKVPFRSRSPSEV

One may read the IC50 as the concentration at which inhibition is half-maximal. As for `CC(C)Nc1nc2c(nc1N1CCC(C(=O)c3cc(Cl)ccc3F)CC1)CCN(C)C2`, where the note is “cho-k1”, the IC50 was determined as 13.7 µM.
For the compound `CC(=O)N1CCc2nc(N3CCC(C(=O)c4cc(Cl)ccc4F)CC3)c(NC(C)C)nc2C1`, the IC50 amounted to 13.8 µM.
